Experimental data published in the supplement of paper PMC10307832.

Experiments:
Assay in all cases: relative viability (nuclei count vs DMSO), 5 days (fraction); higher = more cells survive
[1] = compound: C=CCn1c(=O)c2cnc(Nc3ccc(N4CCN(C)CC4)cc3)nc2n1-c1cccc(C(C)(C)O)n1 [Adavosertib] + N=C(N)NC(=N)NCCc1ccccc1 [Phenformin] (partner 250 µM)
Method in brief: (§1)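 The day after seeding in 1536-well plates, lung cancer cell lines were treated by pin tool with a single drug, or with a fixed anchor-drug dose together with five library-drug doses (not always all listed) in √10 steps. After 5 days, a combined fix-and-stain solution (final 0.05% Triton X-100, 1% formaldehyde, 1 ug/ml Hoechst) was added. Nuclei counted on 4× images gave relative viability as treated counts over vehicle counts, reported as the median of duplicate plates.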

[2] = compound: COc1nc(N)nc2c1ncn2[C@@H]1O[C@H](CO)[C@@H](O)[C@@H]1O [Nelarabine] + CC(C)C[C@H](NC(=O)[C@H](Cc1ccccc1)NC(=O)c1cnccn1)B(O)O [Bortezomib] (partner 0.002 µM)
Method in brief: as §1

[3] = compound: C=CCn1c(=O)c2cnc(Nc3ccc(N4CCN(C)CC4)cc3)nc2n1-c1cccc(C(C)(C)O)n1 [Adavosertib] + CC(=O)Nc1cccc(-n2c(=O)n(C3CC3)c(=O)c3c(Nc4ccc(I)cc4F)n(C)c(=O)c(C)c32)c1 [Trametinib] (partner 0.02 µM)
Method in brief: as §1

[4] = compound: COc1nc(N)nc2c1ncn2[C@@H]1O[C@H](CO)[C@@H](O)[C@@H]1O [Nelarabine] + O=C(CCCCCCC(=O)Nc1ccccc1)NO [Vorinostat] (partner 1 µM)
Method in brief: as §1

| Cell Line | relative viability ([1]; first compound 0.01 µM) | relative viability ([1]; first compound 0.03162 µM) | relative viability ([1]; first compound 0.1 µM) | relative viability ([1]; first compound 0.3162 µM) | relative viability ([2]; first compound 0.01 µM) | relative viability ([2]; first compound 0.03162 µM) | relative viability ([2]; first compound 0.1 µM) | relative viability ([2]; first compound 0.3162 µM) | relative viability ([2]; first compound 1 µM) | relative viability ([3]; first compound 0.01 µM) | relative viability ([3]; first compound 0.03162 µM) | relative viability ([3]; first compound 0.1 µM) | relative viability ([3]; first compound 0.3162 µM) | relative viability ([4]; first compound 0.01 µM) | relative viability ([4]; first compound 0.03162 µM) | relative viability ([4]; first compound 0.1 µM) | relative viability ([4]; first compound 0.3162 µM) | relative viability ([4]; first compound 1 µM) |
| --- | --- | --- | --- | --- | --- | --- | --- | --- | --- | --- | --- | --- | --- | --- | --- | --- | --- | --- |
| SK-LU-1 | 0.57 | 0.484 | 0.458 | 0.223 | 1.56 | 1.02 | 1.61 | 1.1 | 1.13 | 0.611 | 0.505 | 0.509 | 0.316 | 0.789 | 0.585 | 0.924 | 0.94 | 0.845 |
| NCI-H1755 | 0.643 | 0.615 | 0.613 | 0.63 | 1.02 | 0.971 | 0.947 | 1.03 | 1.03 | 0.818 | 0.78 | 0.818 | 0.744 | 0.954 | 0.742 | 0.682 | 0.861 | 0.873 |
| NCI-H647 | 0.495 | 0.533 | 0.354 | 0.249 | 1.28 | 0.988 | 0.897 | 1.29 | 1.14 | 0.561 | 0.432 | 0.428 | 0.415 | 0.764 | 0.798 | 0.716 | 0.456 | 0.583 |
| NCI-H1734 | 0.411 | 0.367 | 0.374 | 0.264 | 1.1 | 0.961 | 0.949 | 0.9 | 0.955 | 0.64 | 0.726 | 0.711 | 0.711 | 0.839 | 0.704 | 0.772 | 0.766 | 0.892 |
| NCI-H727 | 0.543 | 0.593 | 0.531 | 0.565 | 1.09 | 0.768 | 0.869 | 0.95 | 0.795 | 0.427 | 0.383 | 0.396 | 0.385 | 1.24 | 1.17 | 1.13 | 1.27 | 1.19 |
| NCI-H2009 | 0.486 | 0.551 | 0.496 | 0.427 | 1.24 | 1.09 | 0.952 | 1.03 | 1.06 | 0.291 | 0.308 | 0.254 | 0.217 | 0.789 | 0.676 | 0.663 | 0.8 | 0.661 |
| LC-2-ad | 0.565 | 0.635 | 0.621 | 0.597 | 1.08 | 1.03 | 0.972 | 1.26 | 1.07 | 0.865 | 0.908 | 0.914 | 1.04 | 0.814 | 0.738 | 0.67 | 0.721 | 0.676 |
| NCI-H2085 | 0.668 | 0.757 | 0.784 | 0.761 | 1.07 | 0.976 | 1.02 | 1.05 | 0.889 | 0.544 | 0.568 | 0.435 | 0.524 | 0.788 | 0.814 | 0.77 | 0.819 | 0.816 |
| NCI-H661 | 0.28 | 0.264 | 0.276 | 0.252 | 0.986 | 0.932 | 0.866 | 0.912 | 0.866 | 0.686 | 0.621 | 0.68 | 0.486 | 0.862 | 0.951 | 0.702 | 0.761 | 0.727 |
| H3255 | 0.351 | 0.369 | 0.363 | 0.336 | 1.06 | 0.868 | 0.897 | 0.722 | 0.696 | 0.576 | 0.591 | 0.616 | 0.634 | 0.904 | 0.786 | 0.777 | 0.961 | 0.8 |
| NCI-H441 | 0.876 | 0.78 | 1.09 | 0.765 | 0.357 | 0.71 | 0.613 | 0.519 | 0.567 | 0.432 | 0.509 | 0.373 | 0.423 | 0.749 | 0.814 | 1.02 | 0.886 | 0.793 |
| NCI-H838 | 0.57 | 0.502 | 0.525 | 0.655 | 1.06 | 0.748 | 0.87 | 0.868 | 0.7 | 0.488 | 0.531 | 0.503 | 0.582 | 0.861 | 0.79 | 0.759 | 0.755 | 0.73 |
| NCI-H460 | 0.523 | 0.566 | 0.493 | 0.317 | – | 1.34 | 1.69 | 1.37 | 1.1 | 0.179 | 0.137 | 0.197 | 0.124 | 1.42 | 1.5 | 0.889 | 1.13 | 0.923 |
| NCI-H1650 | 0.361 | 0.392 | 0.445 | 0.205 | 0.173 | 0.213 | 0.231 | 0.196 | 0.233 | 0.587 | 0.616 | 0.539 | 0.574 | 0.61 | 0.53 | 0.524 | 0.549 | 0.681 |
| PC-14 | 0.508 | 0.619 | 0.671 | 0.291 | 1.14 | 0.898 | 0.854 | 0.828 | 0.841 | 0.704 | 0.808 | 0.862 | 0.683 | 0.832 | 0.736 | 0.662 | 0.578 | 0.691 |
| LXF-289 | 0.528 | 0.553 | 0.527 | 0.561 | 1.13 | 0.99 | 0.995 | 1 | 1.01 | 0.746 | 0.696 | 0.701 | 0.678 | 0.84 | 0.698 | 0.674 | 0.807 | 0.662 |
| UMC-11 | 0.341 | 0.315 | 0.318 | 0.29 | 0.928 | 0.572 | 0.924 | 0.816 | 0.535 | 0.74 | 0.633 | 0.743 | 0.615 | 0.385 | 0.306 | 0.386 | 0.371 | 0.404 |
| A-427 | 0.337 | 0.289 | 0.297 | 0.255 | 1.01 | 0.846 | 1.01 | 0.895 | 0.961 | 0.771 | 0.808 | 0.805 | 0.565 | 0.856 | 0.93 | 0.895 | 0.854 | 0.844 |
